Laboratory results from paper PMC7910394, “Design of PSMA ligands with modifications at the inhibitor part: an approach to reduce the salivary gland uptake of radiolabeled PSMA inhibitors?” (EJNMMI Radiopharmacy and Chemistry, 2021).
Where two headings read alike, the source gives them in different places.

Tests used:
LNCaP cells = assay: Internalization study of 177Lu-labeled ligands in LNCaP cells, normalized to ([125I]I-BA)KuE; format: cell-based, human; settings: 1 h, 37 °C, 1.0 nM 177Lu-compound, normalized to ([125I]I-BA)KuE
Method: PSMA-positive LNCaP cells (300265; Cell Lines Service, Eppelheim, Germany) were cultivated in Dulbecco’s modified Eagle medium/Nutrition Mixture F-12 with GlutaMAX (1/1, DMEM-F12, Thermo Fisher Scientific, Darmstadt, Germany) supplemented with 10% fetal bovine serum (Merck KGaA, Darmstadt, Germany) and kept at 37 °C in a humidified 5% CO2 atmosphere. One day (24 ± 2 h) prior to all in vitro experiments, the cultivated LNCaP cells were harvested using a mixture of trypsin/ethylenediamine-tetraacetic acid (0.05%/0.02%) in PBS (Thermo Fisher Scientific, Darmstadt, Germany) and centrifuged at 1300 rpm (ca. 190×g) for 3 min at room temperature (Heraeus Megafuge 16, Thermo Fisher Scientific, Darmstadt, Germany). After centrifugation, the supernatant was disposed and the cell pellet was resuspended in culture medium. Cells were counted with a Neubauer hemocytometer (Paul Marienfeld GmbH & Co. KG, Lauda-Königshofen, Germany) and seeded in 24-well plates.
Detailed information on affinity and internalization experiments is provided in the supporting information. […] IC50 values of (^natI-BA)KuE were determined on the same day for monitoring assay performance and to identify abnormal deviations in uptake and/or affinity. […] Data were corrected for non-specific binding and normalized to the specific internalization observed for the radioiodinated reference compound (n = 3).
The culture medium was removed and the cells were washed with 500 µL of DMEM-F12 containing 5% BSA. Afterwards, 200 µL of DMEM-F12 (5% BSA) were added to each well and left to equilibrate at 37 °C for 15 min. 25 µL of DMEM-F12 (5% BSA) were added to each well, followed by the addition of 25 µL of the respective ^177Lu-labeled ligand (10.0 nM in DMEM-F12 (5% BSA)). For blocking PSMA-specific binding and uptake, 25 µL of 2-(phosphonomethyl)pentane-1,5-dioic acid (2-PMPA) (100 µM in DMEM (5% BSA)) instead of DMEM-F12 (5% BSA) were added prior to radiotracer addition. […] Each experiment (control and blockade) was performed in triplicate. […] Incubation was terminated by placing the plate on ice (4 °C, 1 min) and removal of the incubation medium. The cells were washed with 250 µL of ice-cold PBS and the wash medium was combined with the respective supernatant. This fraction represents the amount of free radioligand. 250 µL of ice-cold 2-PMPA (10 µM in PBS) were added and the cells were incubated for 10 min at 4 °C. Afterwards, the cells were rinsed again with 250 µL of ice-cold PBS and the wash medium was combined with the respective supernatant. This fraction represents the amount of cell surface-bound ligand. In the last step, the cells were lysed by addition of 250 µL of 1 M aqueous NaOH. After 20 min, the lysate of each well was transferred to the respective vial as well as 250 µL of 1 M NaOH used for rinsing the well. This fraction represents the amount of internalized radioligand. Quantification of the amount of free, cell surface-bound and internalized activity was performed in a γ-counter.

[1] = tested on: LNCaP tumor xenograft-bearing CB17-SCID mice; format: in vivo, mouse
Method: All animal experiments were conducted in accordance with general animal welfare regulations in Germany (German animal protection act, as amended on 18.05.2018, Art. 141 G v. 29.3.2017 I 626, approval no. 55.2–1-54-2532-71-13) and the institutional guidelines for the care and use of animals. To establish tumor xenografts, LNCaP cells (approx. 10^7 cells) were suspended in 200 μL of a 1/1 mixture (v/v) of DMEM F-12 and Matrigel (BD Biosciences, Heidelberg, Germany) and inoculated subcutaneously onto the right shoulder of 6–8 weeks old CB17-SCID mice (Charles River Laboratories, Sulzfeld, Germany). Mice were used for experiments when tumor size reached 5–10 mm in diameter (3–6 weeks after inoculation).
(§1) Approximately 2–10 MBq (0.20 nmol) of the ^177Lu-labeled PSMA inhibitors were injected into the tail vein of LNCaP tumor xenograft-bearing male CB17-SCID mice (n = 3 to 5). They were sacrificed by CO2 asphyxiation and cervical dislocation either 1 h or 24 h post injection (p.i.) (n = 3 for [^177Lu]Lu-5, -6 & -7 (proinhibitor compounds I-III), n = 4 for [^177Lu]Lu-10 (alkyne), n = 5 for [^177Lu]Lu-3 (carbamate I) and n = 5 for [^177Lu]Lu-11 (tetrazole)). Selected organs were removed, weighed and organ activities measured in a γ-counter.
as §1, with “2 - 10” for “2–10”, “(alkyne) and” for “(alkyne),”

## CC(C)(C)[Si](F)(c1ccc(C(=O)NC[C@@H](NC(=O)CN2CCN(CC(=O)[O-])CCN(CC(=O)[O-])CCN(CC(=O)[O-])CC2)C(=O)N[C@H](CCCCNC(=O)CCC(=O)NCCC[C@@H](NC(=O)CC[C@H](NC(=O)N[C@@H](CCc2nnn[nH]2)C(=O)O)C(=O)O)C(=O)O)C(=O)O)cc1)C(C)(C)C.[Lu+3] [^natLu/[^177Lu]Lu-11]
LNCaP cells
  %Internalization compared to the reference: 1 h: 9.9 ± 3.2%
LNCaP cells; listed as [^177Lu]Lu-11
  %Internalization compared to the reference: 9.9 ± 3.2%
[1]; 1 h p.i.
  Biodistribution Adrenals: 0.61 ± 0.42 % ID/g
  Biodistribution Blood: 1.09 ± 0.30 % ID/g
  Biodistribution Bone: 0.47 ± 0.44 % ID/g
  Biodistribution Heart: 0.41 ± 0.04 % ID/g
  Biodistribution Intestine: 0.67 ± 0.21 % ID/g
  Biodistribution Kidneys: 33.2 ± 3.8 % ID/g
  Biodistribution Liver: 0.74 ± 0.17 % ID/g
  Biodistribution Lung: 1.23 ± 0.27 % ID/g
  Biodistribution Muscle: 0.15 ± 0.03 % ID/g
  Biodistribution Pancreas: 0.33 ± 0.11 % ID/g
  Biodistribution Parotid gland: 0.56 ± 0.08 % ID/g
  Biodistribution Spleen: 1.04 ± 0.15 % ID/g
  Biodistribution Stomach: 1.55 ± 1.67 % ID/g
  Biodistribution Submandibular gland: 0.40 ± 0.05 % ID/g
  Biodistribution Tumor: 3.40 ± 0.63 % ID/g
  Ratio Tumor-to-blood: 3.46 ± 1.62
  Ratio Tumor-to-kidney: 0.10 ± 0.03
  Ratio Tumor-to-liver: 5.00 ± 2.11
  Ratio Tumor-to-muscle: 24.9 ± 10.2
  Ratio Tumor-to-parotid gland: 6.20 ± 1.74
  Ratio Tumor-to-submandibular gland: 8.74 ± 2.52
[1]; 24 h p.i.
  Biodistribution Adrenals: 0.17 ± 0.19 % ID/g
  Biodistribution Bone: 0.18 ± 0.04 % ID/g
  Biodistribution Heart: 0.02 ± 0.00 % ID/g
  Biodistribution Intestine: 0.52 ± 0.68 % ID/g
  Biodistribution Kidneys: 3.23 ± 0.77 % ID/g
  Biodistribution Liver: 0.18 ± 0.04 % ID/g
  Biodistribution Lung: 0.05 ± 0.02 % ID/g
  Biodistribution Muscle: 0.02 ± 0.01 % ID/g
  Biodistribution Pancreas: 0.02 ± 0.00 % ID/g
  Biodistribution Parotid gland: 0.06 ± 0.02 % ID/g
  Biodistribution Spleen: 0.11 ± 0.03 % ID/g
  Biodistribution Stomach: 0.12 ± 0.11 % ID/g
  Biodistribution Submandibular gland: 0.04 ± 0.01 % ID/g
  Biodistribution Tumor: 0.68 ± 0.16 % ID/g
  Ratio Tumor-to-blood: 227 ± 50
  Ratio Tumor-to-kidney: 0.22 ± 0.06
  Ratio Tumor-to-liver: 3.74 ± 0.50
  Ratio Tumor-to-muscle: 55.9 ± 24.3
  Ratio Tumor-to-parotid gland: 12.2 ± 1.7
  Ratio Tumor-to-submandibular gland: 16.9 ± 2.2
  factor by which tumor-to-submandibular gland and tumor-to-parotid gland ratios are lower than for [177Lu]Lu-1: 8
